Assay results taken from patent US11098038B2, “Imidazole-based anticancer agents and derivatives thereof, and methods of making and using same” (The University of Toledo, priority 2017, dated 2021).

Tests used:
Format in all cases: cell-based
SR = assay: NCI 60 screen, SR; details: Homo sapiens, Leukemia
Procedure: (§1) The compounds synthesized were tested at the National Cancer Institute (NCI) for anti-proliferative activity in the 60 human tumor cell line assay.

OVCAR-5 = assay: NCI 60 screen, OVCAR-5; details: Homo sapiens, Ovarian
Procedure: as §1

COLO 205 = assay: NCI 60 screen, COLO 205; details: Homo sapiens, Colon
Procedure: as §1

OVCAR-3 = assay: NCI 60 screen, OVCAR-3; details: Homo sapiens, Ovarian
Procedure: as §1

T-47D = assay: NCI 60 screen, T-47D; details: Homo sapiens, T47D, Breast
Procedure: as §1

HCT15 = assay: NCI 60 screen, HCT15; details: Homo sapiens, HCT-15, Colon
Procedure: as §1

A498 = assay: NCI 60 screen, A498; details: Homo sapiens, Renal
Procedure: as §1

UACC-62 = assay: NCI 60 screen, UACC-62; details: Homo sapiens, Melanoma
Procedure: as §1

SN12C = assay: NCI 60 screen, SN12C; details: Homo sapiens, Renal
Procedure: as §1

TK-10 = assay: NCI 60 screen, TK-10; details: Homo sapiens, Renal
Procedure: as §1

HL-60(TB) = assay: NCI 60 screen, HL-60(TB); details: Homo sapiens, Leukemia
Procedure: as §1

CCRF-CEM = assay: NCI 60 screen, CCRF-CEM; details: Homo sapiens, Leukemia
Procedure: as §1

SK-MEL-2 [1] = assay: NCI 60 screen, SK-MEL-2 (first line); details: Homo sapiens; Melanoma, SK-MEL-2 (first of two lines so named, r37)
Procedure: as §1

SW-620 = assay: NCI 60 screen, SW-620; details: Homo sapiens, Colon
Procedure: as §1

MDA-MB-468 = assay: NCI 60 screen, MDA-MB-468; details: Homo sapiens, Breast
Procedure: as §1

MALME-3M = assay: NCI 60 screen, MALME-3M; details: Homo sapiens, Melanoma
Procedure: as §1

MCF7 = assay: NCI 60 screen, MCF7; details: Homo sapiens, Breast
Procedure: as §1

SK-MEL-5 = assay: NCI 60 screen, SK-MEL-5; details: Homo sapiens, Melanoma
Procedure: as §1

MDA-MB-435 = assay: NCI 60 screen, MDA-MB-435; details: Homo sapiens, Melanoma
Procedure: as §1

NCI-322M = assay: NCI 60 screen, NCI-322M; details: Homo sapiens, Non-Small Cell Lung
Procedure: as §1

UO-31 = assay: NCI 60 screen, UO-31; details: Homo sapiens, Renal
Procedure: as §1

NCI-460 = assay: NCI 60 screen, NCI-460; details: Homo sapiens, Non-Small Cell Lung
Procedure: as §1

IGROV1 = assay: NCI 60 screen, IGROV1; details: Homo sapiens, IGROV-1, Ovarian
Procedure: as §1

LOX IMVI = assay: NCI 60 screen, LOX IMVI; details: Homo sapiens, Melanoma
Procedure: as §1

RXF393 = assay: NCI 60 screen, RXF393; details: Homo sapiens, RXF 393, Renal
Procedure: as §1

OVCAR-8 = assay: NCI 60 screen, OVCAR-8; details: Homo sapiens, Ovarian
Procedure: as §1

U251 = assay: NCI 60 screen, U251; details: Homo sapiens, U-251, CNS
Procedure: as §1

HOP-92 = assay: NCI 60 screen, HOP-92; details: Homo sapiens, Non-Small Cell Lung
Procedure: as §1

ACHN = assay: NCI 60 screen, ACHN; details: Homo sapiens, Renal
Procedure: as §1

SK-OV-3 = assay: NCI 60 screen, SK-OV-3; details: Homo sapiens, Ovarian
Procedure: as §1

SNB-19 = assay: NCI 60 screen, SNB-19; details: Homo sapiens, CNS
Procedure: as §1

BT-549 = assay: NCI 60 screen, BT-549; details: Homo sapiens, Breast
Procedure: as §1

HCC-2998 = assay: NCI 60 screen, HCC-2998; details: Homo sapiens, Colon
Procedure: as §1

MDA-MB-231/ATCC = assay: NCI 60 screen, MDA-MB-231/ATCC; details: Homo sapiens, Breast
Procedure: as §1

SF-539 = assay: NCI 60 screen, SF-539; details: Homo sapiens, CNS
Procedure: as §1

HOP-62 = assay: NCI 60 screen, HOP-62; details: Homo sapiens, Non-Small Cell Lung
Procedure: as §1

NCI-H226 = assay: NCI 60 screen, NCI-H226; details: Homo sapiens, Non-Small Cell Lung
Procedure: as §1

NCI/ADR-RES = assay: NCI 60 screen, NCI/ADR-RES; details: Homo sapiens, Ovarian
Procedure: as §1

DU-145 = assay: NCI 60 screen, DU-145; details: Homo sapiens, Prostatic
Procedure: as §1

M14 = assay: NCI 60 screen, M14; details: Homo sapiens, Melanoma
Procedure: as §1

HS 578T = assay: NCI 60 screen, HS 578T; details: Homo sapiens, Breast
Procedure: as §1

SF-268 = assay: NCI 60 screen, SF-268; details: Homo sapiens, CNS
Procedure: as §1

A549/ATCC = assay: NCI 60 screen, A549/ATCC; details: Homo sapiens, Non-Small Cell Lung
Procedure: as §1

OVCAR-4 = assay: NCI 60 screen, OVCAR-4; details: Homo sapiens, Ovarian
Procedure: as §1

SNB-75 = assay: NCI 60 screen, SNB-75; details: Homo sapiens, CNS
Procedure: as §1

RPMI-8226 = assay: NCI 60 screen, RPMI-8226; details: Homo sapiens, Leukemia
Procedure: as §1

UACC-257 = assay: NCI 60 screen, UACC-257; details: Homo sapiens, Melanoma
Procedure: as §1

EKVX = assay: NCI 60 screen, EKVX; details: Homo sapiens, Non-Small Cell Lung
Procedure: as §1

K-562 = assay: NCI 60 screen, K-562; details: Homo sapiens, K562, Leukemia
Procedure: as §1

KM12 = assay: NCI 60 screen, KM12; details: Homo sapiens, Colon
Procedure: as §1

SF-295 = assay: NCI 60 screen, SF-295; details: Homo sapiens, CNS
Procedure: as §1

SK-MEL-2 [2] = assay: NCI 60 screen, SK-MEL-2 (second line); details: Homo sapiens; Melanoma, SK-MEL-2 (second of two lines so named, r38)
Procedure: as §1

PC-3 = assay: NCI 60 screen, PC-3; details: Homo sapiens, Prostatic
Procedure: as §1

MOLT-4 = assay: NCI 60 screen, MOLT-4; details: Homo sapiens, Leukemia
Procedure: as §1

786-0 = assay: NCI 60 screen, 786-0; details: Homo sapiens, Renal
Procedure: as §1

HT29 = assay: NCI 60 screen, HT29; details: Homo sapiens, HT-29, Colon
Procedure: as §1

HCT-116 = assay: NCI 60 screen, HCT-116; details: Homo sapiens, Colon
Procedure: as §1

NCI-H522 = assay: NCI 60 screen, NCI-H522; details: Homo sapiens, Non-Small Cell Lung
Procedure: as §1

NCI-H23 = assay: NCI 60 screen, NCI-H23; details: Homo sapiens, Non-Small Cell Lung
Procedure: as §1

O=C(Cc1ccc(/C=C/C(=O)c2ncc[nH]2)cc1)Nc1ccc(F)cc1 [Compound 22, (E)-2-(4-(3-(1H-imidazol-2-yl)-3-oxoprop-1-en-1-yl)phenyl)-N-(4-fluorophenyl)acetamide]
GI50 (SR): 1110 nM
GI50 (OVCAR-5): 2600 nM
GI50 (COLO 205): 4540 nM
GI50 (OVCAR-3): 1700 nM
GI50 (T-47D): 3330 nM
GI50 (HCT15): 1150 nM
GI50 (A498): 8930 nM
GI50 (UACC-62): 5920 nM
GI50 (SN12C): 2930 nM
GI50 (TK-10): 7890 nM
GI50 (HL-60(TB)): 1660 nM
GI50 (CCRF-CEM): 1680 nM
GI50 (SK-MEL-2 [1]): 7470 nM
GI50 (SW-620): 1430 nM
GI50 (MDA-MB-468): 970 nM
GI50 (MALME-3M): 7860 nM
GI50 (MCF7): 990 nM
GI50 (SK-MEL-5): 6060 nM
GI50 (MDA-MB-435): 4070 nM
GI50 (NCI-322M): 3350 nM
GI50 (UO-31): 2640 nM
GI50 (NCI-460): 1720 nM
GI50 (IGROV1): 2660 nM
GI50 (LOX IMVI): 1070 nM
GI50 (RXF393): 3440 nM
GI50 (OVCAR-8): 5080 nM
GI50 (U251): 1200 nM
GI50 (HOP-92): 9110 nM
GI50 (ACHN): 4820 nM
GI50 (SK-OV-3): 9380 nM
GI50 (SNB-19): 1580 nM
GI50 (BT-549): 2730 nM
GI50 (HCC-2998): 5430 nM
GI50 (MDA-MB-231/ATCC): 1830 nM
GI50 (SF-539): 840 nM
GI50 (HOP-62): 2640 nM
GI50 (NCI-H226): 9850 nM
GI50 (NCI/ADR-RES): 7180 nM
GI50 (DU-145): 1190 nM
GI50 (M14): 5980 nM
GI50 (HS 578T): 2330 nM
GI50 (SF-268): 5100 nM
GI50 (A549/ATCC): 6940 nM
GI50 (OVCAR-4): 9140 nM
GI50 (SNB-75): 1110 nM
GI50 (RPMI-8226): 1270 nM
GI50 (UACC-257): 8670 nM
GI50 (EKVX): 7460 nM
GI50 (K-562): 1300 nM
GI50 (KM12): 2100 nM
GI50 (SF-295): 4740 nM
GI50 (SK-MEL-2 [2]): 6260 nM
GI50 (PC-3): 2800 nM
GI50 (MOLT-4): 5740 nM
GI50 (786-0): 1370 nM
GI50 (HT29): 1150 nM
GI50 (HCT-116): 1890 nM
GI50 (NCI-H522): 3380 nM
GI50 (NCI-H23): 1910 nM
